Common to all, as to type: cell-based
The subject of experiment [1] is MDA-MB-231 (breast cancer). The experiment can be described thus: Antiproliferative activity, CCK-8 cell viability. The conditions noted are these: Homo sapiens, 72 h, read-out: Inhibition of Cancerous Cells, MDA-MB-231; for inhibition at 3.3 µM: compound concentration of 3.3 μM; for inhibition at 10 µM: compound concentration of 10 μM; for inhibition at 30 µM: compound concentration of 30 μM. As for the experimental part:
(§1) The antiproliferative activity of a compound was determined in the following cell lines: MDA-MB-231 (breast cancer), HepG2 (liver cancer), SW480 (colon cancer), B16F10 (malignant melanoma), A431 (epidermoid carcinoma), A549 (lung adenocarcinoma), and HeLa (cervical cancer). MDA-MB-231, HepG2, SW480, B16F10, and A431 cells were cultured in Dulbecco's modified Eagle's medium (DMEM) containing 10% fetal bovine serum (FBS). HeLa cells were cultured in MEM/EBSS (MEM) containing 10% FBS. A549 cells were maintained in Kaighn's modification of Ham's F-12 medium containing 10% FBS. The Cell Counting Kit-8 (CCK-8) assay was used to determine the cell viability of cells following treatment with the compound.
(§2) Briefly, cells were seeded in a 96-well plate at a density of 2,000-5,000 cells/well. Following attachment, the cells were treated with the compound in media at a compound concentration of 3.3 μM, 10 μM, or 30 μM, or DMSO as a control. After the cells were incubated at 37° C. for 72 h, the CCK-8 solution (10 μL) was added to each well. After incubation at 37° C. for 4 h, the absorbance value of each well was determined using a multi-well plate reader at 450 nm. The percentage of cell viability was determined with respect to the DMSO-treated cells. The results were summarized in Table 2-4 below, wherein A represents no less than 50% inhibition of cell growth; B represents less than 50% but no less than 30% inhibition of cell growth; C represents less than 30% inhibition of cell growth.

Experiment [2] relates to B16F10 (malignant melanoma). Nature of the experiment: Antiproliferative activity, CCK-8 cell viability. Conditions: Mus musculus, B16-F10, 72 h, read-out: Inhibition of Cancerous Cells, B16F10; for inhibition at 3.3 µM: compound concentration of 3.3 μM; for inhibition at 10 µM: compound concentration of 10 μM; for inhibition at 30 µM: compound concentration of 30 μM. As for the experimental part: as §1, §2

Experiment [3] has as its system A431 (epidermoid carcinoma). The experiment can be described thus: Antiproliferative activity, CCK-8 cell viability. The conditions noted are these: Homo sapiens, A-431, 72 h, read-out: Inhibition of Cancerous Cells, A431; for inhibition at 3.3 µM: compound concentration of 3.3 μM; for inhibition at 10 µM: compound concentration of 10 μM; for inhibition at 30 µM: compound concentration of 30 μM. As for the experimental part: as §1, §2

The test system of experiment [4] is A549 (lung adenocarcinoma). Nature of the experiment: Antiproliferative activity, CCK-8 cell viability. Conditions: Homo sapiens, 72 h, read-out: Inhibition of Cancerous Cells, A549; for inhibition at 3.3 µM: compound concentration of 3.3 μM; for inhibition at 10 µM: compound concentration of 10 μM; for inhibition at 30 µM: compound concentration of 30 μM. As for the experimental part:
as §1, §2

The next experiment deals with HepG2 (liver cancer). Nature of the experiment: Antiproliferative activity, CCK-8 cell viability. The conditions noted are these: Homo sapiens, 72 h, read-out: Inhibition of Cancerous Cells, HepG2; for inhibition at 3.3 µM: compound concentration of 3.3 μM; for inhibition at 10 µM: compound concentration of 10 μM; for inhibition at 30 µM: compound concentration of 30 μM. As for the experimental part: as §1, §2

In the next experiment the test system is HeLa (cervical cancer). Nature of the experiment: Antiproliferative activity, CCK-8 cell viability. The conditions noted are these: Homo sapiens, 72 h, read-out: Inhibition of Cancerous Cells, HELA; for inhibition at 3.3 µM: compound concentration of 3.3 μM; for inhibition at 10 µM: compound concentration of 10 μM; for inhibition at 30 µM: compound concentration of 30 μM. As for the experimental part:
as §1, §2

In another experiment the test system is SW480 (colon cancer). The experiment can be described thus: Antiproliferative activity, CCK-8 cell viability. Conditions: Homo sapiens, 72 h, read-out: Inhibition of Cancerous Cells, SW480; for inhibition at 3.3 µM: compound concentration of 3.3 μM; for inhibition at 10 µM: compound concentration of 10 μM; for inhibition at 30 µM: compound concentration of 30 μM. As for the experimental part:
as §1, §2

Experiment [5] relates to alpha-smooth muscle actin (α-SMA). Nature of the experiment: Inhibition of TGF-β induced expression of alpha-smooth muscle actin in CFSC cells (western blot). The conditions noted are these: compound at 10 μM, TGF-β (10 ng/mL), 24 hours. As for the experimental part: The ability of a compound to inhibit the TGF-β induced expression of alpha-smooth muscle actin (α-SMA) was evaluated in CCl4-treated fat storing (CFSC) cells. α-SMA is considered as a reliable marker of hepatic stellate cell activation and a key biomarker for liver fibrosis.
CFSC cells maintained in a DMEM medium supplemented with 10% fetal bovine serum were seeded to 12-well culture dishes and grown to a confluence of 60-70% the next day. Culture was changed to a serum-free DMEM medium and the cells were treated with the compound at 10 μM in the presence of TGF-β (10 ng/mL). The cells were incubated for another 24 hours. All culture was maintained at 37° C. in 5% carbon dioxide.
An NP-40 lysate solution (50 mM Tris, pH 7.4, 150 mM NaCl, 1% NP-40) with EDTA free cocktail added was used to lyse the cells on ice for 30 min. The lysate was collected and centrifuged at 4° C. for 10 min at 12,000 rpm. The pellet was discarded and the supernatant was transferred to a new tube. The cell lysate was loaded with 5× loading buffer and boiled for 10 min, resolved by 10% SDS-polyacrylamide gel electrophoresis (SDS-PAGE), and transferred to a PVDF membrane. The membrane was blocked with 5% skim milk in Tris-buffered saline and TWEEN® 20 (TBST; 10 mM Tris-HCl, pH 8.0, 150 mM NaCl, 0.1% TWEEN® 20) for 1 h at room temperature and then incubated with α-SMA and β-actin antibodies overnight at 4° C. After washing twice with TBST, the membrane was probed with a […] anti-immunoglobulin (1:5000 dilution) for 1 h at room temperature. After two subsequent rinses in TBST, immunoreactive products were reacted with ECL and visualized by a UVP CHEMSTUDIO™ imaging system. The western blotting bands are quantitated using an ImageJ software. The percentage of inhibition was obtained by calculating the percentage decrease in the band intensity compared to the one treated with TGF-β only.
The results are summarized in Table 1, where A represents a value no less than 80/% inhibition, B represents a value less than 80% but no less than 50% inhibition, C represents a value less than 50% but no less than 30% inhibition, and D represents a value less than 30% inhibition with a compound at 10 μM.
A general note: Immunoblotting shows a protein as a band on a membrane.

For orientation: inhibition means the relative decrease from the control value, in per cent.

`CC1=C(CC(=O)O)c2cc(F)ccc2/C1=C\c1ccc(Oc2ccc(F)cc2)cc1C(F)(F)F` [Compound D12, 2-[(1Z)-1-{[2-Trifluoromethyl-4-(4-fluorophenoxy)phenyl]methylidene}-5-fluoro-2-methyl-1H-inden-3-yl]acetic acid]: the inhibition at 3.3 µM in experiment [1] was no less than 50%; in experiment [2] it was less than 30%; in experiment [3], 30 to 50%; in experiment [4], 30 to 50%; in the experiment with HepG2 (liver cancer), no less than 50%; in the experiment with HeLa (cervical cancer), less than 30%. In addition, the inhibition at 3.3 µM in the experiment with SW480 (colon cancer) lay within 30 to 50%. Also, the inhibition at 10 µM in experiment [1] was no less than 50%; in experiment [2], no less than 50%; in experiment [3] it was no less than 50%; in experiment [4], no less than 50%; in the experiment on HepG2 (liver cancer), no less than 50%; with HeLa (cervical cancer), less than 30%. Further, the inhibition at 10 µM with SW480 (colon cancer) was no less than 50%; in experiment [5], less than 30%. The inhibition at 30 µM was no less than 50% in experiment [1]; no less than 50% in experiment [2]; no less than 50% in experiment [3]; no less than 50% in experiment [4]; no less than 50% in the experiment with HepG2 (liver cancer); less than 30% in the experiment on HeLa (cervical cancer). Further, the inhibition at 30 µM with SW480 (colon cancer) was no less than 50%.

As to `O=C(O)CC1=C(Cc2ccccc2)/C(=C/c2ccc(Oc3ccc(F)cc3)cc2)c2ccc(F)cc21` [Compound D9, 2-[(1Z)-5-Fluoro-2-benzyl-1-({4-[4-fluorophenoxy]phenyl}methylidene)-1H-inden-3-yl]acetic acid], the inhibition at 3.3 µM in experiment [1] is no less than 50%; in experiment [2], less than 30%; in experiment [3] it was 30 to 50%; in experiment [4], 30 to 50%; in the experiment on HepG2 (liver cancer) it was less than 30%; in the experiment with HeLa (cervical cancer) it was 30 to 50%. In the experiment on SW480 (colon cancer), the inhibition at 3.3 µM lay within 30 to 50%. For the same compound, the inhibition at 10 µM is no less than 50% in experiment [1]; no less than 50% in experiment [2]; no less than 50% in experiment [3]; no less than 50% in experiment [4]; less than 30% with HepG2 (liver cancer); 30 to 50% in the experiment on HeLa (cervical cancer). Besides, the inhibition at 10 µM in the experiment with SW480 (colon cancer) was no less than 50%; in experiment [5], no less than 80%. For the same compound, the inhibition at 30 µM (in experiment [1]; in experiment [2]; in experiment [3]; in experiment [4]; in the experiment on HepG2 (liver cancer); in the experiment on HeLa (cervical cancer)) was no less than 50% each time. Besides, in the experiment on SW480 (colon cancer), the inhibition at 30 µM is no less than 50%.

Take `COc1cccc2c1C(CC(=O)O)=C(C)/C2=C/c1ccc(COc2ccccc2)cc1` [Compound A11]: the inhibition at 3.3 µM in experiment [1] is less than 30%; in experiment [2], no less than 50%; in experiment [3], no less than 50%; in experiment [4] it was 30 to 50%; in the experiment with HepG2 (liver cancer), 30 to 50%; in the experiment with HeLa (cervical cancer) it was less than 30%. The inhibition at 3.3 µM with SW480 (colon cancer) was no less than 50%. Further, the inhibition at 10 µM in experiment [1] was 30 to 50%; in experiment [2] it was no less than 50%; in experiment [3], no less than 50%; in experiment [4], 30 to 50%; with HepG2 (liver cancer), no less than 50%; in the experiment with HeLa (cervical cancer), less than 30%. Also, the inhibition at 10 µM in the experiment with SW480 (colon cancer) was no less than 50%; in experiment [5] it was less than 30%. The inhibition at 30 µM was no less than 50% in experiment [1]; no less than 50% in experiment [2]; no less than 50% in experiment [3]; 30 to 50% in experiment [4]; no less than 50% with HepG2 (liver cancer); less than 30% in the experiment with HeLa (cervical cancer). Further, in the experiment on SW480 (colon cancer), the inhibition at 30 µM was no less than 50%.

Regarding `CC1=C(CC(=O)O)c2cc(F)ccc2/C1=C\c1ccc(F)c(Oc2ccccc2)c1` [Compound D23, 2-[(1Z)-5-Fluoro-1-(4-fluoro-3-(phenoxy)benzylidene)-2-methyl-1H-inden-3-yl]-acetic acid], the inhibition at 3.3 µM in experiment [1] was no less than 50%; in experiment [2] it was less than 30%; in experiment [3], less than 30%; in experiment [4] it was less than 30%; in the experiment with HepG2 (liver cancer) it was 30 to 50%; with HeLa (cervical cancer) it was less than 30%. The inhibition at 3.3 µM in the experiment on SW480 (colon cancer) was less than 30%. Besides, the inhibition at 10 µM in experiment [1] was no less than 50%; in experiment [2], no less than 50%; in experiment [3], 30 to 50%; in experiment [4], no less than 50%; with HepG2 (liver cancer), no less than 50%; in the experiment with HeLa (cervical cancer) it was no less than 50%. In addition, the figures for the inhibition at 10 µM (with SW480 (colon cancer); in experiment [5]) were 30 to 50% and no less than 80%, respectively. The inhibition at 30 µM (in experiment [1]; in experiment [2]; in experiment [3]; in experiment [4]; in the experiment with HepG2 (liver cancer); in the experiment with HeLa (cervical cancer)) was no less than 50% in each case. Moreover, the inhibition at 30 µM with SW480 (colon cancer) was no less than 50%.
